This test addresses T1, Cbl-B (Homo sapiens, UniProt Q13191).
T1 construct: MSD-Based Assay for Degradation of Cbl-B in THP-1 Cells; endogenous in cells; host or cells: THP-1 (title) / Jurkat (protocol text)
Briefly: MSD-based assay for degradation of Cbl-B in THP-1 cells. The class given is cell-based. How it is done: MSD-Based Assay for Degradation of Cbl-B in THP-1 Cells
Assay plates were then shaken at 600 rpm for 5 minutes, followed by incubation for 24 hours in the 37° C. TC incubator. […] Cell debris was then spun down at maximum speed (about 3200 g) for 30 min and lysates frozen in the −80° C. fridge. Meanwhile, MSD plates (L15XA-3) were coated overnight at 4° C. with 1 ug/mL capture antibody (Anti-Cbl-B antibody, 246C5a and Mouse mAB, ab54362). […] Blocking buffer was 3% Blocker A (MSD, R93BA-4) in TBST. Plates were washed 3× with 150 ul/well of 1×TBST and sample lysates (70 ul/well) then added, followed by shaking for 1 hr at RT, 600 rpm. […] Plates were again washed 3× with 150 ul/well of 1×TBST, followed by addition of Secondary Detection antibody, SULFO-TAG anti-species antibody (Anti Rabbit Antibody (R32AB-5) MSD, R32AB-1) at a final concentration of 1 ug/ml and 25 uL/well, followed by shaking for 1 hr at RT, 600 rpm. Plates were again washed 3× with 150 ul/well of 1×TBST, followed by addition of 1×MSD reading buffer (MSD, R92TC-2), 150 ul/well, diluted from 4× with water.
Compound Dmax were binned into A through D as follows: A indicates >70%, B indicates 50-70%, C indicates 30-50%, D indicates <30%.

Where [1] appears, read: Cbl-B degradation, Jurkat cells seeded (heading: THP-1 cells), 24 hours incubation, MSD readout.
Where [2] appears, read: Cbl-B degradation, Jurkat cells seeded (heading: THP-1 cells), 24 hours incubation, MSD readout, read-out: Dmax.

Where two headings read alike, the source gives them in different places. A value given as a limit tells only on which side of the number the result lay.

T1 sequence (Q13191 whole entry): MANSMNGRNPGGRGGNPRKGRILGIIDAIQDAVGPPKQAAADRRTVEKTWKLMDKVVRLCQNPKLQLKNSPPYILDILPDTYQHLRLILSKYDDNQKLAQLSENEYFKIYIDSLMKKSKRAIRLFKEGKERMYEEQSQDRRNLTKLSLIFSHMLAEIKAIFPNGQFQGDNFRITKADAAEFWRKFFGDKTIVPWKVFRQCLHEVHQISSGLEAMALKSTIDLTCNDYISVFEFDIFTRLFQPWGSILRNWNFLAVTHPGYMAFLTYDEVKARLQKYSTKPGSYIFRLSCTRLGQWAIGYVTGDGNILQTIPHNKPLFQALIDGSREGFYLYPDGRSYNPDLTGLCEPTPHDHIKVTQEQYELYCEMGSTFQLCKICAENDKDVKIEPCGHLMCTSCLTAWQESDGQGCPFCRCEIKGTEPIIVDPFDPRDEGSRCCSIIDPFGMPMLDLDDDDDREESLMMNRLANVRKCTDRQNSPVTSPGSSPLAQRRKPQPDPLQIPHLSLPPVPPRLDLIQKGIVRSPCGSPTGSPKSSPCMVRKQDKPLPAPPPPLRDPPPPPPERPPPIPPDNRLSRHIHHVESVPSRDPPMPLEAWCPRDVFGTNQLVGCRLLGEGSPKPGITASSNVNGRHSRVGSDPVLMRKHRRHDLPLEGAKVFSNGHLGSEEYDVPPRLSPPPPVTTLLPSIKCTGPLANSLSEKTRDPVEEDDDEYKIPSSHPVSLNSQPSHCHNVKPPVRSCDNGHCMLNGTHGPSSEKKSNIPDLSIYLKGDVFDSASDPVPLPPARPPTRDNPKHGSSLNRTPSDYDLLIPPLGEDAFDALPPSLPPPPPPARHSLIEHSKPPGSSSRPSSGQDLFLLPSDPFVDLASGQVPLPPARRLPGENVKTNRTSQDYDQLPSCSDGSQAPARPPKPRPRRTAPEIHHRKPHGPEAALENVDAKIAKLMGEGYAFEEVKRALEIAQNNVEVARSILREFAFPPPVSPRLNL

In turn, `CN(CC1CCN(Cc2cc(C(F)(F)F)c3cn(-c4cccc(C5(Cc6nncn6C)COC5)c4)c(=O)n3c2)CC1)C(=O)c1ccc(N2CCN(c3ccc4c(c3)CN([C@@H]3CCC(=O)NC3=O)C4=O)CC2)cc1` [Compound 165] registered a DC50 under setting [1] of 1000 to 10000 nM. Also, the greatest degradation seen (Dmax) under setting [2] lay within 30 to 50%.
The matching figures for `Cn1cnnc1[C@@H](c1cccc(-n2cc3c(C(F)(F)F)cc(CN4CCC[C@@H](OCCOCc5ccc(COCCNc6cccc7c6C(=O)N(C6CCC(=O)NC6=O)C7=O)cc5)CC4)cn3c2=O)c1)C1CCC1` (some centres unmarked) [Compound 31]: 30 to 300 nM and 50 to 70%.
For the molecule `Cn1cnnc1[C@@H](c1cccc(-n2cc3c(C(F)(F)F)cc(CN4CCC(COCc5ccc(CN6CCN(c7ccc8c(c7)CN([C@H]7CCC(=O)NC7=O)C8=O)CC6)cc5)CC4)cn3c2=O)c1)C1CCC1` [Compound 102], the half-maximal degradation concentration (DC50) under setting [1] was 30 to 300 nM. In addition, the greatest degradation seen (Dmax) under setting [2] was more than 70%.
Take `Cn1cnnc1[C@@H](c1cccc(-n2cc3c(C(F)(F)F)cc(CN4CCC[C@H](COCc5ccc(CN6CCN(c7ccc8c(c7)CN([C@@H]7CCC(=O)NC7=O)C8=O)CC6)cc5)C4)cn3c2=O)c1)C1CCC1` [Compound 235]: the Dmax (THP-1) was in the range of 30 to 50%.
As for `Cn1cnnc1[C@@H](c1cccc(-n2cc3c(C(F)(F)F)cc(CN4CCC[C@H](OCc5ccc(CN6CCN(c7ccc8c(c7)CN([C@H]7CCC(=O)NC7=O)C8=O)CC6)cc5)C4)cn3c2=O)c1)C1CCC1` [Compound 82], the half-maximal degradation concentration (DC50) under setting [1] was less than 30 nM.
Consider `CN(CC1CCN(Cc2cc(C(F)(F)F)c3cn(-c4cccc([C@H](c5nncn5C)C5CCC5)c4)c(=O)n3c2)CC1)C(=O)c1ccc(C2CCN(c3ccc4c(c3)CN([C@H]3CCC(=O)NC3=O)C4=O)CC2)cc1` (single isomer, unassigned) [Compound 200], for which, under setting [1], the DC50 is less than 30 nM. In addition, under setting [2], the Dmax was more than 70%.
For `Cn1cnnc1[C@@H](c1cccc(-n2cc3c(C(F)(F)F)cc(CN4CCC(OCc5cccc(CN6CCN(c7ccc8c(c7)CN([C@H]7CCC(=O)NC7=O)C8=O)CC6)c5)CC4)cn3c2=O)c1)C1CCC1` (single isomer, unassigned) [Compound 208], under setting [1], the DC50 is more than 10000 nM. Moreover, the Dmax under setting [2] was less than 30%.
For `CN(CCOC1CCN(Cc2cc(C(F)(F)F)c3cn(-c4cccc([C@H](c5nncn5C)C5CCC5)c4)c(=O)n3c2)CC1)C(=O)c1ccc(C2CCN(c3ccc4c(c3)CN([C@H]3CCC(=O)NC3=O)C4=O)CC2)cc1` (single isomer, unassigned) [Compound 108], in that order: less than 30 nM and 50 to 70%.
`Cn1cnnc1[C@@H](c1cccc(-n2cc3c(C(F)(F)F)cc(CN4CCC(OCCN5CCN(CC6CCN(c7ccc8c(c7)CN([C@@H]7CCC(=O)NC7=O)C8=O)CC6)CC5)CC4)cn3c2=O)c1)C1CCC1` (single isomer, unassigned) [Compound 79] came in with a DC50 under setting [1] of 1000 to 10000 nM. Further, under setting [2], the Dmax was 30 to 50%.
For `CN(CC1CCN(Cc2cc(C(F)(F)F)c3cn(-c4cccc([C@H](c5nncn5C)C5CCC5)c4)c(=O)n3c2)CC1)C(=O)c1ccc(N2CCN(c3ccc4c(c3)CN([C@H]3CCC(=O)NC3=O)C4=O)CC2)cc1` (single isomer, unassigned) [Compound 118], in that order: less than 30 nM and more than 70%.
For `Cn1cnnc1CC1(c2cccc(-n3cc4c(C(F)(F)F)cc(CN5CCC(OCCCN6CCN(c7ccc8c(c7)CN([C@H]7CCC(=O)NC7=O)C8=O)CC6)CC5)cn4c3=O)c2)COC1` (single isomer, unassigned) [Compound 68], in that order: more than 10000 nM and less than 30%.
For `Cn1cnnc1[C@@H](c1cccc(-n2cc3c(C(F)(F)F)cc(CN4CC[C@@H](OCCOCc5ccc(COCCNc6cccc7c6C(=O)N(C6CCC(=O)NC6=O)C7=O)cc5)C4)cn3c2=O)c1)C1CCC1` (some centres unmarked) [Compound 59], in that order: 300 to 1000 nM and 30 to 50%.
Under setting [1], `Cn1cnnc1[C@H](c1cccc(-n2cc3c(C(F)(F)F)cc(CN4CCC(OCCOCc5ccc(COCCNc6cccc7c6C(=O)N(C6CCC(=O)NC6=O)C7=O)cc5)CC4)cn3c2=O)c1)C1CCC1` (single isomer, unassigned) [Compound 6] registered a DC50 of 30 to 300 nM. Besides, under setting [2], the Dmax lay in the range of 50 to 70%.
Molecule `Cn1cnnc1CC1(c2cccc(-n3cc4c(C(F)(F)F)cc(CNCCOCCNc5cccc6c5C(=O)N(C5CCC(=O)NC5=O)C6=O)cn4c3=O)c2)COC1` (centres unmarked) [Compound 2] came in with a 50% degradation concentration (DC50) under setting [1] of more than 10000 nM. In addition, the Dmax under setting [2] is less than 30%.
For `Cn1cnnc1[C@@H](c1cccc(-n2cc3c(C(F)(F)F)cc(CN4CCN(C(=O)CN5CCC(CN6CCN(c7ccc8c(c7)CN([C@H]7CCC(=O)NC7=O)C8=O)CC6)CC5)CC4)cn3c2=O)c1)C1CCC1` (single isomer, unassigned) [Compound 130], in that order: 30 to 300 nM and 50 to 70%.
As for `CN(CCN(C)C(=O)c1ccc(N2CCN(c3ccc4c(c3)CN([C@@H]3CCC(=O)NC3=O)C4=O)CC2)cc1)Cc1cc(C(F)(F)F)c2cn(-c3cccc([C@H](c4nncn4C)C4CCC4)c3)c(=O)n2c1` (single isomer, unassigned) [Compound 139], the DC50 under setting [1] lay in the range of 300 to 1000 nM.
`Cn1cnnc1[C@@H](c1cccc(-n2cc3c(C(F)(F)F)cc(CN4CCC(OCCc5ccc(CN6CCN(c7ccc8c(c7)CN([C@H]7CCC(=O)NC7=O)C8=O)CC6)cc5)CC4)cn3c2=O)c1)C1CCC1` [Compound 116] came in with a half-maximal degradation concentration (DC50) under setting [1] of less than 30 nM. Moreover, the maximal degradation (Dmax) under setting [2] lay in the range of 50 to 70%.
The matching figures for `Cn1cnnc1[C@@H](c1cccc(-n2cc3c(C(F)(F)F)cc(CN4CCC(OCc5ccc(C6CCN(c7ccc8c(c7)CN([C@H]7CCC(=O)NC7=O)C8=O)CC6)cc5)CC4)cn3c2=O)c1)C1CCC1` (single isomer, unassigned) [Compound 214]: 30 to 300 nM and 30 to 50%.
Take `CN(CCOC1CCN(Cc2cc(C(F)(F)F)c3cn(-c4cccc([C@H](c5nncn5C)C5CCC5)c4)c(=O)n3c2)CC1)C(=O)c1ccc(N2C3CC2CN(c2ccc4c(c2)CN([C@@H]2CCC(=O)NC2=O)C4=O)C3)cc1` (single isomer, unassigned) [Compound 145]: the DC50 under setting [1] was more than 10000 nM. Moreover, the Dmax (THP-1) lay in the range of 30 to 50%.
In the case of `Cn1cnnc1[C@@H](c1cccc(-n2cc3c(C(F)(F)F)cc(CN4CCC[C@H](OCc5ccc(CC6CCN(c7ccc8c(c7)CN([C@H]7CCC(=O)NC7=O)C8=O)CC6)cc5)C4)cn3c2=O)c1)C1CCC1` (single isomer, unassigned) [Compound 188], under setting [1], the DC50 lay in the range of 300 to 1000 nM.
The same measure, in the same setting: in the case of `CN(CCO[C@H]1CCCN(Cc2cc(C(F)(F)F)c3cn(-c4cccc([C@H](c5nncn5C)C5CCC5)c4)c(=O)n3c2)C1)C(=O)c1ccc(N2CCN(c3ccc4c(c3)CN([C@@H]3CCC(=O)NC3=O)C4=O)CC2)cc1` (single isomer, unassigned) [Compound 105] it was 30 to 300 nM.
Under setting [1], `Cn1cnnc1[C@@H](c1cccc(N2Cc3c(cc(CN4CCC[C@@H](OCc5ccc(CC6CCN(c7ccc8c(c7)CN([C@H]7CCC(=O)NC7=O)C8=O)CC6)cc5)C4)cc3C(F)(F)F)C2=O)c1)C1CCC1` (single isomer, unassigned) [Compound 194] came in with a DC50 of 30 to 300 nM. Under setting [2], the greatest degradation seen (Dmax) lay in the range of 30 to 50%.
The molecule `Cn1cnnc1[C@@H](c1cccc(-n2cc3c(C(F)(F)F)cc(CN4CCC(OCc5ccc(COCCNc6cccc7c6C(=O)N(C6CCC(=O)NC6=O)C7=O)cc5)CC4)cn3c2=O)c1)C1CCC1` (some centres unmarked) [Compound 13] had a DC50 under setting [1] of 1000 to 10000 nM. Under setting [2], the greatest degradation seen (Dmax) is less than 30%.
